# Legend:
# [1] = Antioxidant assay: DPPH radical-scavenging activity; conditions: DPPH method; regression using five concentrations (500, 200, 100, 50, 25 μM); 517 nm, 40 min at 30 °C
# Method: DPPH radical-scavenging activity of the sample was measured as previously described with minor modifications. In a 96-well microplate, 150 μL of DPPH solution (200 μM) was added to 50 μL of the test sample in methanol at different concentrations. The OD values of the reaction mixtures was recorded at 517 nm using a Multiskan Go (Thermo Fisher Scientific, Inc., Waltham, MA, USA) for 40 min at 30 °C. The DPPH radical scavenging activity was calculated by the following equation: DPPH scavenging activity % = […], where Asample represents the absorbance of sample and DPPH, Ablank represents the absorbance of sample and CH3OH, Acontrol represents the absorbance of DPPH and CH3OH. […] L-ascorbic acid was used as the positive control in this experiment. All tests were run in triplicate, and values obtained from experiments were averaged.
# ovine COX-1 = target: T1, ovine COX-1 (Ovis aries, UniProt P05979)
# T1 sequence (P05979 25-600): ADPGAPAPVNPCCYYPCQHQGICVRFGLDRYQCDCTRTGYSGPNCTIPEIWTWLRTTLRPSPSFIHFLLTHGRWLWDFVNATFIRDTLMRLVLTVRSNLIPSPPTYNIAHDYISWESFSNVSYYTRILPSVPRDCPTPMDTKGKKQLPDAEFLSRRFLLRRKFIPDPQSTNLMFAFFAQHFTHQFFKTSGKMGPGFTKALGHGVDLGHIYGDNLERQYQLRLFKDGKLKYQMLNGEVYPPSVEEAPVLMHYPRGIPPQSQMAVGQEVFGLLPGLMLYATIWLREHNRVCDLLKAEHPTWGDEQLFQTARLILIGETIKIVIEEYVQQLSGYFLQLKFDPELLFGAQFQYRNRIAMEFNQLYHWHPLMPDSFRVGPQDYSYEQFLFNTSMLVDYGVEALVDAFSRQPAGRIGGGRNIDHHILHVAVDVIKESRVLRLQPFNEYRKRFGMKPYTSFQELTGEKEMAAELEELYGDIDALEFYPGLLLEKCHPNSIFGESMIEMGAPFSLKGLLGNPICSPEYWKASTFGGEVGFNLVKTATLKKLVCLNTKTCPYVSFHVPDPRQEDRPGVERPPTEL
# From the text: (§1) 2,2-Di-phenyl-1-picrylhydrazyl (DPPH) (Sigma Corporation, Ronkonkoma, New York, NY, USA), L-cysteine methyl ester and o-tolyl isothiocyanate (Meilun Biotech. Co. Ltd., Dalian, China), D-glucose, and L-glucose (Energy Chemical, Shanghai, China) were used. COX inhibitor screening assay kit was purchased from Cayman Chemical Company (Ann Arbor, MI, USA).
# ovine COX-2 = target: T2, ovine COX-2 (Ovis aries, UniProt P79208)
# T2 sequence (P79208 17-603): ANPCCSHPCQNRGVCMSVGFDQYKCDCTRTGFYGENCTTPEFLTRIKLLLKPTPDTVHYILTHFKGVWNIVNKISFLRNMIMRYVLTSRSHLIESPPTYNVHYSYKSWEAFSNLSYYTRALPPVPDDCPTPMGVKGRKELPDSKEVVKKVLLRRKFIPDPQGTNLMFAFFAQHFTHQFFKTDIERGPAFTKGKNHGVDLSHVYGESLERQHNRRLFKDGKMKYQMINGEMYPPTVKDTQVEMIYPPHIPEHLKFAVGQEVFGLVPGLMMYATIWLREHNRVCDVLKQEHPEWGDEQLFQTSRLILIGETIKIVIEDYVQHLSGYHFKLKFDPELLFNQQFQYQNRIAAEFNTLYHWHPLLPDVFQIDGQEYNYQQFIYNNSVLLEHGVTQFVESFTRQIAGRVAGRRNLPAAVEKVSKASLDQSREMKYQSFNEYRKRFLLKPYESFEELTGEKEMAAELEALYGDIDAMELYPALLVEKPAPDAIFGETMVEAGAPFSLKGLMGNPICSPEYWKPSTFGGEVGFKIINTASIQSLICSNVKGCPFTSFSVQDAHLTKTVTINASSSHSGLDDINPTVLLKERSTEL
# From the text: as §1
SMILES,IC50 [1] [µM],IC50 (ovine COX-1) [µM],IC50 (ovine COX-2) [µM]
"COc1cc(O[C@@H]2O[C@H](CO)[C@@H](O)[C@H](O)[C@H]2O)cc2c1C(=O)C[C@@H](c1ccc(O)cc1)O2 [Compound 1, hostaflavanone A]",83.2 ± 3,21.6 ± 1.2,45.4 ± 3.3
"C[C@@H]1O[C@@H](OC[C@H]2O[C@@H](OCCc3ccccc3)[C@H](O)[C@@H](O)[C@@H]2O)[C@H](O)[C@H](O)[C@H]1O [Compound 6, phenethyl-O-rutinoside]",275 ± 14.8,41.2 ± 1.5,35.4 ± 1.6
"OC[C@H]1O[C@@H](OCCc2ccccc2)[C@H](O)[C@@H](O)[C@@H]1O [Compound 4, phenethyl-O-β-D-glucopyranoside]",282 ± 5.2,15.5 ± 0.6,38.2 ± 3.9
"O=C1O[C@H]([C@@H](O)CO)C(O)=C1O [L-ascorbic acid, reference compound]",33.9 ± 1.1,,
"OC[C@H]1O[C@@H](OC[C@H]2O[C@@H](OCCc3ccccc3)[C@H](O)[C@@H](O)[C@@H]2O)[C@H](O)[C@@H](O)[C@@H]1O [Compound 5, phenethanol-β-D-gentiobioside]",257 ± 13.8,38.4 ± 1.3,31.7 ± 2.9

# Source: publication PMC6150378, “Chemical Constituents from the Flower of Hosta plantaginea with Cyclooxygenases Inhibition and Antioxidant Activities and Their Chemotaxonomic Significance” (Molecules : A Journal of Synthetic Chemistry and Natural …, 2017)
